The values below come from patent US20240269150A1, “WOUND TREATMENT COMPOSITION” (CS MEDICA A/S, priority 2021, published 2024).

The test is described as follows: Comparison of compositions formulated with different crystalline CBDs. The conditions noted are these: compositions per Example 1 (formulation A or B) differing only in the crystalline CBD used. In kind it is in vivo. The source says: In some embodiments, CBD of crystal structure A (or capable of forming needle-like crystals) is at least 1.2, 1.5, 2, 3, 4, 5, 7.5, 10, 15 or 20 times more “potent” on a weight/weight basis than CBD of crystal structure B (or capable of forming cluster/bunch-like crystals). Often, the “A-type” CBD is at least 2.5, 5, 7.5, or 10 times more “potent” on a weight/weight basis than “B-type” CBD. The “potency” of “type A” CBD can e.g. be determined in measuring the time needed for wound and/or soar healing using essentially identical compositions with the exception of the type of CBD used. Alternatively, the potency can be determined in the quantity of CBD needed to provide the same effect, such as wound and/or sore healing time.
Two compositions are prepared according to Example 1, e.g. formulation A or B, the only difference being that the crystalline CBD used in the formulation is either of type A (needle-like crystals; FIG. 1) or type B (bunch/cluster-like; FIG. 2).
Type A crystalline CBD is sourced from Enecta, while type B CBD is sourced from Pharma Hemp.

With `C=C(C)[C@@H]1CCC(C)=C[C@H]1c1c(O)cc(CCCCC)cc1O` [type A CBD, cannabidiol], the “Activity / potency of type A CBD relative to type B CBD” value is reported as “significantly more active than type B CBD”. Moreover, the “Activity / potency of type A CBD relative to type B CBD” value (listed as CBD with a needle-like crystal structure) is “significantly more potent”.
